# Measured values: publication PMC9248268 (Biochemical pharmacology, 2021)
# What was measured:
# [1] = target: T1, recombinant human PTPRD phosphatase (Homo sapiens, UniProt P23468); details: cited from earlier work
# T1 sequence (P23468 1357-1612 limits assumed): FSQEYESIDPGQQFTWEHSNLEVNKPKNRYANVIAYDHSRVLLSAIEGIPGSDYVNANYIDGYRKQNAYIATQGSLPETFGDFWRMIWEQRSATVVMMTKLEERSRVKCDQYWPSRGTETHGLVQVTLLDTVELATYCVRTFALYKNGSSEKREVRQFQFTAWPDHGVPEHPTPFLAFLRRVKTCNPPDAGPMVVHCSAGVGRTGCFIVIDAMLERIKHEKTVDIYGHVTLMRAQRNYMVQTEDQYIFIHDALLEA
# [2] = target: T2, PTPRS phosphatase (Homo sapiens, UniProt Q13332); details: cited from earlier work
# T2 sequence (Q13332 1393-1648 limits assumed): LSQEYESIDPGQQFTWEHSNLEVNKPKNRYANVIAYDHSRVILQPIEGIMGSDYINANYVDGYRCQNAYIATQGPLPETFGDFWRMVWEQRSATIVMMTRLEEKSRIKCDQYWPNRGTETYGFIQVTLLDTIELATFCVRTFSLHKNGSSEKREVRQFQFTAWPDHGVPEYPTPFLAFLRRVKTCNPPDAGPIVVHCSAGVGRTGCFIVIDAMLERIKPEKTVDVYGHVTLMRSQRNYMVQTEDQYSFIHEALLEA
# [3] = target: T3, PTPRJ phosphatase (Homo sapiens, UniProt Q12913); experiment: inhibition of pNPP hydrolysis by recombinant PTPRJ phosphatase; format: biochemical
# T3 sequence (Q12913 997-1337 limits assumed): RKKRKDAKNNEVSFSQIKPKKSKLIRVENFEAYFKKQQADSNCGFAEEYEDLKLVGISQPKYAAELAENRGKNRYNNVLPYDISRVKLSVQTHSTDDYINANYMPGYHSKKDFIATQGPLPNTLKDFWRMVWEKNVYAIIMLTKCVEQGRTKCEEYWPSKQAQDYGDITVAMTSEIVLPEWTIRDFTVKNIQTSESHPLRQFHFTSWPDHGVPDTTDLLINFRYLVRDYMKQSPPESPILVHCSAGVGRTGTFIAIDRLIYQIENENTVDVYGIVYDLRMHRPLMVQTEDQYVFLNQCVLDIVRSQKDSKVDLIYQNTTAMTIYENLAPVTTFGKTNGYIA
# [4] = acute ascending doses or 2-week repeated doses up to 20 mg/kg; cited from earlier work
# [5] = tested on: PTPRF phosphatase; details: cited from earlier work
# [6] = target: T1, recombinant human PTPRD phosphatase; experiment: inhibition of pNPP hydrolysis by recombinant PTPRD phosphatase
# [7] = target: T4, PTPN1 (PTP1B) phosphatase (Homo sapiens, UniProt P18031); experiment: inhibition of pNPP hydrolysis by recombinant PTPN1; format: biochemical
# T4 sequence (P18031 1-435): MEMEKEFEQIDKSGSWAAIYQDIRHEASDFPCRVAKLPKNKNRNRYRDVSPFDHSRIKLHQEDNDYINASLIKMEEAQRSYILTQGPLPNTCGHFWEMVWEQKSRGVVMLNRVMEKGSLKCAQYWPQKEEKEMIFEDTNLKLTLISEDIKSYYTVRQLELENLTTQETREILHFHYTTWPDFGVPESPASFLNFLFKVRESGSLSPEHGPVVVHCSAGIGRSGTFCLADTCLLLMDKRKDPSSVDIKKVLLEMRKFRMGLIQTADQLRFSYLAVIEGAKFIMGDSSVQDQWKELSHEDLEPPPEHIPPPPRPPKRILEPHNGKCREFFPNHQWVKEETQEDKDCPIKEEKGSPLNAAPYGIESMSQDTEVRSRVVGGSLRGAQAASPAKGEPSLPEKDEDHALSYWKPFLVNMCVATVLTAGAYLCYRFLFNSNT
# [8] = target: T2, PTPRS phosphatase; experiment: inhibition of pNPP hydrolysis by recombinant PTPRS phosphatase; format: biochemical; details: relative to 7-BIA
# [9] = absorption study, plasma levels in rats; format: in vivo; details: male, Sprague Dawley, rat, 10 mg/kg
# [10] = tested on: PTPRF phosphatase; experiment: inhibition of pNPP hydrolysis by recombinant PTPRF phosphatase; format: biochemical; details: relative to 7-BIA
# [11] = tested on: other protein tyrosine phosphatases screened; experiment: screen at other protein tyrosine phosphatases; format: biochemical
# [12] = oral tolerability study in mice; design: species or system wildtype C57BL/6J or PTPRD knockout mice; details: mouse, in vivo
# [13] = tested on: sites of action (and side effects) of most marketed drugs; experiment: EUROFINS assays for sites of action of marketed drugs; details: read-out: EC50 at EUROFINS sites of action of marketed drugs; any of these sites
structure (smiles),measurement,setting,value
"CCCCOc1cc2c(c(C=O)c1OC)CC(O)OC2=O (centres unmarked) [compound 1, 7-butoxy illudalic acid analog]",activity at PTPRD phosphatase (in words),[1],active
same,potency of inhibition of PTPRD phosphatase dephosphorylation of p-NPP (in words),[1],good potency
same,activity at PTPRS phosphatase (in words),[2],active
same,potency at PTPRJ (in words),[3],moderate potencies
same,toxicities in mice (in words),[4],no apparent toxicities
same,activity at PTPRF phosphatase (in words),[5],active
CCCCOc1cc2c(=O)occc2c(C=O)c1OC [compound 22],activity at PTPRD (in words),[6],activity was lost
CCCCOc1cc2c(c(C=O)c1OCC)CC(O)OC2=O (centres unmarked) [compound 23],activity at PTPRD (in words),[6],activity was lost
CCCCOc1cc2c(c(C=O)c1OCCCC)CC(O)OC2=O (centres unmarked) [compound 24],activity at PTPRD (in words),[6],activity was lost
"COc1cccc(COc2cc3c(c(C=O)c2OC)CC(O)OC3=O)c1 (centres unmarked) [compound 30, 3-Hydroxy-6-methoxy-7-((3-methoxybenzyl)oxy)-1-oxoisochromane-5-carbaldehyde]",activity at PTPRD (in words),[6],no improvement in PTPRD activity
COc1ccccc1COc1cc2c(c(C=O)c1OC)CC(O)OC2=O (centres unmarked) [compound 31],activity at PTPRD (in words),[6],no improvement in PTPRD activity
"COc1c(OCc2ccc(Oc3ccccc3)cc2)cc2c(c1C=O)CC(O)OC2=O (centres unmarked) [compound 40, 3-Hydroxy-6-methoxy-1-oxo-7-((4-phenoxybenzyl)oxy)isochromane-5-carbaldehyde]",potency in inhibiting PTPN1/PTP1B (in words),[7],relatively high potency
"COc1c(OCC2CCCC2)cc2c(c1C=O)CC(O)OC2=O (centres unmarked) [compound 58, 7-Cyclopentylmethoxy-3-hydroxy-6-methoxy-1-oxo-isochroman-5-carbaldehyde]",greater selectivity for PTPRD vs PTPRS than 7-BIA,[8],1.6 fold
same,half-life,[9],~50 min
same,concentration at 30 min,[9]; ip,577 ng/g
same,concentration at 120 min,[9]; ip,10.3 ng/g
same,concentration at 240 min,[9]; ip,1.84 ng/g
same,concentration at 5 min,[9]; iv,24600 ng/g
same,concentration at 30 min,[9]; iv,92.6 ng/g
same,concentration at 240 min,[9]; iv,1.03 ng/g
same,concentration at 30 min,[9]; po,82.4 ng/g
same,concentration at 120 min,[9]; po,24.2 ng/g
same,concentration at 240 min,[9]; po,4.62 ng/g
same,greater selectivity for PTPRD vs PTPN1/PTP1B than 7-BIA,[7]; relative to 7-BIA,1.8 fold
same,greater selectivity for PTPRD vs PTPRJ than 7-BIA,[3]; relative to 7-BIA,3.5 fold
same,greater selectivity for PTPRD vs PTPRF than 7-BIA,[10],1.4 fold
same,potency at other protein tyrosine phosphatases screened (in words),[11],no substantial potency
same,weight lost,[12]; 200 mg/kg,1.3 g
same,weight lost,[12]; 400 mg/kg,3.4 g
same,weight lost,[12]; 600 mg/kg,1.1 g
same,weight lost,[12]; 1000 mg/kg,9 g
same,EC50,[13],≥ 100 µM
